# Numbers after ± are expanded uncertainties.
# Settings: 298.15 K; 101.33 kPa; Liquid
row,SMILES,mass density [kg/m3]
1,"COCCOCCOCCOCCOC [2,5,8,11,14-pentaoxapentadecane]",1007.12 ± 0.53
2,"COCCOCCOCCOC [2,5,8,11-tetraoxadodecane]",980.625 ± 0.52
3,CCCCCCC [heptane],679.542 ± 0.45
4,CCCCCCCC [octane],698.548 ± 0.53

# Second part, the molecule after the results:
row,mass density [kg/m3],SMILES
1,726.357 ± 0.83,CCCCCCCCCC [decane]
2,759.274 ± 0.51,CCCCCCCCCCCCCC [tetradecane]

# — the NIST ThermoML archive (doi:10.1021/je049903o)
